{"source": "patent US11980209B2", "about": "“Consumables” (GIVAUDAN SA, priority 2007, dated 2024)", "system": "perceived sweet taste (sweet sensitive panelists)", "assay": "Ranking test, isointensity of 200 ppm trilobatin in water (Example 1c)", "format": "in vivo, human", "description": "The sensory evaluation was conducted using the method described in example 1b. The panels consisted of 7 sweet sensitive panelists. Panelists were presented with 0.5%, 1%, and 1.5% sucrose solutions in water and a fourth sample of 200 ppm trilobatin in water. Panelists were asked to rank the samples from low to high with respect to perceived sweet taste. 200 ppm trilobatin in water was determined to be isosweet to 1% sucrose.\nThe sweetness detection threshold for individuals within the average consumer group varies from below 0.4% to 0.7% sucrose or more. All examples were performed with sweet sensitive panelists able to detect at least 0.5% sucrose or less. Extrapolating from examples 1 a, b, and c, the concentration detectable by the average consumer will therefore be higher, and the average concentration near the sweetness detection threshold of the average consumer will be about 100 to 200 ppm."}
{"smiles": "O=C(CCc1ccc(O)cc1)c1c(O)cc(O[C@@H]2O[C@H](CO)[C@@H](O)[C@H](O)[C@H]2O)cc1O", "note": "[trilobatin, 1-[4-(beta-D-glucopyranosyloxy)-2,6-dihydroxyphenyl]-3-(4-hydroxyphenyl)-1-propanone]", "values": [{"measurement": "isointensity to sucrose", "setting": "200 ppm trilobatin in water", "value": 1, "unit": "% sucrose"}, {"measurement": "average concentration near the sweetness detection threshold of the average consumer", "setting": "extrapolating from examples 1a, b and c", "value": "100 to 200", "unit": "ppm"}]}
